Results: patent US11077090B2, “Compounds and compositions and uses thereof” (Sunovion Pharmaceuticals Inc., priority 2016, dated 2021)
Read-outs that look alike come from different tables or passages of the source.

System: compound-treated mice
Assay: Neuropharmacological assay (SmartCube): behavioral activity signature and minimal effective dose
Type: in vivo
Details: for minimal effective dose: Mus musculus, ip, MED = dose having 50% or more total activity; for AD: ADHD (probability of activity signature) / AG: analgesic (probability of activity signature) / AX: anxiolytic (probability of activity signature) / CE: cognitive enhancer (probability of activity signature) / DP: anti-depressant (probability of activity signature) / MS: mood stabilizer (probability of activity signature) / PS: anti-psychotic (probability of activity signature) / SD: sedative hypnotic (probability of activity signature) / UN: uncharacterized CNS activity (probability of activity signature): i.p. 15 min before test, most efficacious dose(s)
Source text: Neurosci. 2011 Sep. 9; 5:103 (doi: 10.3389/fnins.2011.00103) (“Roberds”). As reported in Roberds, because psychiatric diseases generally result from disorders of cell-cell communication or circuitry, intact systems are useful in detecting improvement in disease-relevant endpoints. These endpoints are typically behavioral in nature, often requiring human observation and interpretation. To facilitate testing of multiple compounds for behavioral effects relevant to psychiatric disease, PsychoGenics, Inc. (Tarrytown, N.Y., “PGI”) developed SmartCube™, an automated system in which behaviors of compound-treated mice are captured by digital video and analyzed with computer algorithms. (D. Brunner et al., Drug Discov. Today 2002, 7:S107-S112). PGI Analytical Systems uses data from SmartCube™ to compare the behavioral signature of a test compound to a database of behavioral signatures obtained using a large set of diverse reference compounds. (The composition of the database as well as validation of the method is further described in Roberds). In this way, the neuropharmacological effects of a test compound can be predicted by similarity to major classes of compounds, such as antipsychotics, anxiolytics and antidepressants.
The SmartCube™ system produces an activity signature indicating the probability that the activity of the test compound at the administered dose matches a given class of neuropharmacological agents. (See, e.g., Roberds, FIGS. 2 and 3). The test compound is simultaneously compared against multiple classes of agents; thus, a separate probability is generated for each behavioral effect measured (e.g., anxiolytic activity, analgesic activity, etc.). In the table below, these probabilities are reported for each behavioral effect measured as follows:
where LOQ is the limit of quantification.
Provided compounds were dissolved in a mixture of Pharmasolve™ (N-methyl-2-pyrrolidone), polyethylene glycol and propylene glycol, and were injected i.p. 15 min. before the behavioral test. For each compound, injections were administered at 3 different doses. For each behavioral effect measured, results for the most efficacious dose(s) are presented. In the table below, DP: anti-depressant; AX: anxiolytic; SD: sedative hypnotic; PS: anti-psychotic; MS: mood stabilizer; AD: ADHD; CE: cognitive enhancer; AG: analgesic; UN: uncharacterized CNS activity.
The potency of many of the compounds in the table was also determined in the SmartCube™ system. Test compounds were routinely examined at dose levels of 0.3, 1, 3, 10 and 30 mg per kg (mpk), although the dose range was increased or decreased if necessary to obtain a full dose response curve. A compound's minimal effective dose (MED) is a measure of the compounds potency. The MED was defined as the dose (in mpk) having 50% or more total activity in SmartCube.

[1] = read-out: Potency: minimal effective dose (MED)
[2] = read-out: Potency: minimal effective dose (MED), binned

Row | Structure (SMILES) | minimal effective dose [1] | AD: ADHD (probability of activity signature) | AG: analgesic (probability of activity signature) | AX: anxiolytic (probability of activity signature) | CE: cognitive enhancer (probability of activity signature) | DP: anti-depressant (probability of activity signature) | MS: mood stabilizer (probability of activity signature) | PS: anti-psychotic (probability of activity signature) | SD: sedative hypnotic (probability of activity signature) | UN: uncharacterized CNS activity (probability of activity signature) | minimal effective dose [2]
1 | C[C@@H]1OCc2ccccc2[C@@H]1N (single isomer, unassigned) [Example 153] | 3 to 10 mg/kg | + (LOQ ≤ + <5%) | ++ (5% ≤ ++ <25%) | ++ (5% ≤ ++ <25%) | ++ (5% ≤ ++ <25%) | + (LOQ ≤ + <5%) | + (LOQ ≤ + <5%) | ++ (5% ≤ ++ <25%) | + (LOQ ≤ + <5%) | +++ (25% ≤ +++ <50%) | –
2 | CN[C@@H]1COCc2ccc(Cl)c(Cl)c21 [Example 147] | 3 to 10 mg/kg | + (LOQ ≤ + <5%) | ++ (5% ≤ ++ <25%) | ++ (5% ≤ ++ <25%) | + (LOQ ≤ + <5%) | ++ (5% ≤ ++ <25%) | + (LOQ ≤ + <5%) | + (LOQ ≤ + <5%) | + (LOQ ≤ + <5%) | ++++ (50% ≤ ++++) | –
3 | CCCN[C@@H]1COCc2ccccc21.Cl [Example 262] | – | + (LOQ ≤ + <5%) | + (LOQ ≤ + <5%) | + (LOQ ≤ + <5%) | + (LOQ ≤ + <5%) | ++ (5% ≤ ++ <25%) | + (LOQ ≤ + <5%) | + (LOQ ≤ + <5%) | ++ (5% ≤ ++ <25%) | ++ (5% ≤ ++ <25%) | 10 to 30 mg/kg
4 | C[C@@H]1OC[C@@H](N)c2cc(F)ccc21.Cl [Example 206] | – | + (LOQ ≤ + <5%) | ++ (5% ≤ ++ <25%) | ++++ (50% ≤ ++++) | ++ (5% ≤ ++ <25%) | ++ (5% ≤ ++ <25%) | + (LOQ ≤ + <5%) | ++ (5% ≤ ++ <25%) | + (LOQ ≤ + <5%) | +++ (25% ≤ +++ <50%) | 3 to 10 mg/kg
5 | CC[C@@H]1OCc2cccc(C)c2[C@@H]1N.Cl [Example 208] | – | + (LOQ ≤ + <5%) | + (LOQ ≤ + <5%) | +++ (25% ≤ +++ <50%) | ++ (5% ≤ ++ <25%) | ++ (5% ≤ ++ <25%) | ++ (5% ≤ ++ <25%) | ++ (5% ≤ ++ <25%) | + (LOQ ≤ + <5%) | +++ (25% ≤ +++ <50%) | 3 to 10 mg/kg
6 | Cc1ccc(C)c2c1COCC2N.Cl (stereo not shown) [Example 47, 5,8-Dimethylisochroman-4-amine hydrochloride] | < 3 mg/kg | + (LOQ ≤ + <5%) | ++ (5% ≤ ++ <25%) | ++ (5% ≤ ++ <25%) | ++ (5% ≤ ++ <25%) | ++ (5% ≤ ++ <25%) | ++ (5% ≤ ++ <25%) | ++ (5% ≤ ++ <25%) | + (LOQ ≤ + <5%) | ++++ (50% ≤ ++++) | –
7 | C#CCN[C@@H]1COCc2ccccc21.Cl [Example 263] | – | + (LOQ ≤ + <5%) | + (LOQ ≤ + <5%) | + (LOQ ≤ + <5%) | + (LOQ ≤ + <5%) | + (LOQ ≤ + <5%) | + (LOQ ≤ + <5%) | + (LOQ ≤ + <5%) | ++ (5% ≤ ++ <25%) | + (LOQ ≤ + <5%) | < 3 mg/kg
8 | C[C@H]1OCc2ccc3c(c2[C@@H]1N)CCCC3.Cl [Example 197] | – | + (LOQ ≤ + <5%) | + (LOQ ≤ + <5%) | ++ (5% ≤ ++ <25%) | + (LOQ ≤ + <5%) | + (LOQ ≤ + <5%) | + (LOQ ≤ + <5%) | + (LOQ ≤ + <5%) | + (LOQ ≤ + <5%) | ++++ (50% ≤ ++++) | 3 to 10 mg/kg
9 | Cc1ccc2c(c1)C(N)COC2.Cl (stereo not shown) [Example 26] | < 3 mg/kg | + (LOQ ≤ + <5%) | ++ (5% ≤ ++ <25%) | ++ (5% ≤ ++ <25%) | ++ (5% ≤ ++ <25%) | ++ (5% ≤ ++ <25%) | + (LOQ ≤ + <5%) | ++ (5% ≤ ++ <25%) | + (LOQ ≤ + <5%) | ++++ (50% ≤ ++++) | –
10 | CCCN[C@H]1c2ccccc2CO[C@H]1C.Cl [Example 272] | – | + (LOQ ≤ + <5%) | + (LOQ ≤ + <5%) | ++ (5% ≤ ++ <25%) | + (LOQ ≤ + <5%) | + (LOQ ≤ + <5%) | ++ (5% ≤ ++ <25%) | ++ (5% ≤ ++ <25%) | ++ (5% ≤ ++ <25%) | ++ (5% ≤ ++ <25%) | 3 to 10 mg/kg
11 | Cc1ccc2c(c1)CCOCC2N.Cl (stereo not shown) [Example 36] | 3 to 10 mg/kg | + (LOQ ≤ + <5%) | ++ (5% ≤ ++ <25%) | ++ (5% ≤ ++ <25%) | +++ (25% ≤ +++ <50%) | ++ (5% ≤ ++ <25%) | + (LOQ ≤ + <5%) | ++ (5% ≤ ++ <25%) | ++ (5% ≤ ++ <25%) | ++ (5% ≤ ++ <25%) | –
12 | Cl.NC1COCc2c(F)cccc21 (stereo not shown) [Example 23] | 10 to 30 mg/kg | + (LOQ ≤ + <5%) | ++ (5% ≤ ++ <25%) | +++ (25% ≤ +++ <50%) | ++ (5% ≤ ++ <25%) | ++ (5% ≤ ++ <25%) | + (LOQ ≤ + <5%) | ++ (5% ≤ ++ <25%) | + (LOQ ≤ + <5%) | ++ (5% ≤ ++ <25%) | –
13 | CCN(C)C(=O)Oc1ccc2c(c1)CO[C@@H](C)[C@H]2N.Cl [Example 279] | – | + (LOQ ≤ + <5%) | + (LOQ ≤ + <5%) | + (LOQ ≤ + <5%) | + (LOQ ≤ + <5%) | ++ (5% ≤ ++ <25%) | +++ (25% ≤ +++ <50%) | ++ (5% ≤ ++ <25%) | ++ (5% ≤ ++ <25%) | ++ (5% ≤ ++ <25%) | 3 to 10 mg/kg
